Assays:
[1] = 1:5 ratio preparations, rotoevaporation 1 hour at 50° C., compared to freeze-dried samples
Source text: Drying the 1:5 ratio preparations can be achieved by rotoevaporation, followed by freeze-drying or spray drying. […] Further concentration of MICs and removal of sugars from the extract can also be performed with solid phase-extraction (SPE).

[2] = Accelerated stability of MICs in moringa extract at 37° C. (LCMS); format: physicochemical; details: moringa extract stored at 37° C. for 30 days, compared to day 0
[3] = system: iNOS; assay: LPS-induced iNOS gene expression in RAW 264.7 macrophages (qPCR); format: cell-based; details: 1 and 5 μM; LPS-induced RAW 264.7
Procedure: (§1) All reagents were supplied from Sigma-Aldrich Co. (St. Louis, Mo.) unless otherwise noted. RAW 264.7 macrophages (ATCC TIB-71) were maintained in Dulbecco's modified Eagle's medium (Caisson, North Logan, Utah) supplemented with 100 U/mL penicillin, 100 μg/mL streptomycin, and 10% fetal bovine serum. Cells were incubated at 37° C. in a 5% CO2 humidified atmosphere and subcultured by cell scraping. For experiments, RAW cells were plated at a density of 4×10^5 cells/mL in 24-well plates. Cells were incubated overnight (18 h), washed with warm 37° C. PBS, and medium was replaced fresh DMEM medium. […] Lipopolysaccharide (1 μg/mL) was added after 2 h incubation with treatments to elicit inflammatory responses. Cells were treated in duplicate or triplicate. After an additional 6 h incubation period, media were collected and cells were washed with PBS prior to collection in TRIzol® Reagent (Ambion, Life Technologies). […]
(§2) Total RNA was extracted from cells according to manufacturer's specifications. […] RNA integrity was evaluated by running about 1 μg of RNA on a 1% agarose gel. […]
(§3) Quantitative PCR amplifications were performed on an ABI 7300 Real-Time PCR System (Applied Biosystems) with the following thermal cycler profile: 2 minutes, 50° C.; 10 minutes, 95° C.; 15 seconds, 95° C.; 1 minute, 60° C. for the dissociation stage; 15 seconds, 95° C.; 1 minutes, 60° C.; and 15 seconds, 95° C. […]

[4] = system: IL-1β; assay: LPS-induced IL-1β gene expression in RAW 264.7 macrophages (qPCR); format: cell-based; details: 1 and 5 μM; LPS-induced RAW 264.7
Procedure: as §1, §2, §3

[5] = system: HII4E liver cells; assay: In vitro gluconeogenesis: glucose production in liver cells; format: cell-based, rat; details: same concentrations as SF
Procedure: (§4) H4IIE rat hepatoma cells (CRL-1548, American Type Culture Collection, Manassas, Va.) were assayed for glucose production as previously described (21). Cell viability was measured by the 3-(4,5-Dimethyl-2-thiazolyl)-2,5-diphenyltetrazolium bromide (MTT; TCI, Portland, Oreg.) assay (22). RNA extraction, cDNA synthesis and qPCR for gene expression of PEPCK and G6P were performed as described above.

[6] = system: TNF-α; assay: LPS-induced TNF-α gene expression in RAW 264.7 macrophages (qPCR); format: cell-based; details: any of the concentrations tested; LPS-induced RAW 264.7
Procedure: as §1, §2, §3

[7] = system: RAW 264.7 macrophages; assay: MTT-based cell viability assay; details: concentrations tested in anti-inflammatory assays
Procedure: The effect of the treatments on cell viability was measured using MTT [3-(4,5-dimethyl-2-thiazolyl)-2,5-diphenyltetrazolium bromide] (TCI, Portland, Oreg.) (Mosmann, 1983). MTT (5 mg/mL) was dissolved in PBS (Cayman Chemical, Ann Arbor, Mich.), filtered through a 0.22 μm membrane and added to treated cells during the last 3-4 hours of treatment. Media were carefully aspirated and cells were dissolved in DMSO. The absorbance was read at 570 nm.

[8] = system: IL-6; assay: LPS-induced IL-6 gene expression in RAW 264.7 macrophages (qPCR); format: cell-based; details: 5 μM; LPS-induced RAW 264.7
Procedure: as §1, §2, §3

[9] = In vitro gluconeogenesis: glucose production in liver cells; format: cell-based, rat; details: Rattus norvegicus; range of 5 concentrations, HII4E liver cells
Procedure: as §4

## C[C@@H]1O[C@@H](Oc2ccc(CN=C=S)cc2)[C@H](O)[C@H](O)[C@H]1O [MIC-1, 4-[(α-rhamnosyloxy)benzyl]isothiocyanate]
[1]
  loss of MIC under rotoevaporation conditions: No significant loss
[2]
  degradation of MIC in moringa extract: approximately 80%
[3]
  mRNA expression of iNOS: significant reduction
[4]
  mRNA expression of IL-1β: significant reduction
[5]
  glucose production, activity compared to SF: superior activity to SF
[6]
  TNF-α gene expression: no reduction
[7]
  cytotoxicity (MTT-based cell viability): no signs of cytotoxicity
[8]
  IL-6 gene expression: decrease IL-6 gene expression significantly

## CC(=O)O[C@@H]1[C@@H](O)[C@@H](O)[C@H](Oc2ccc(CN=C=S)cc2)O[C@H]1C [MIC-4, 4-[(4′-O-acetyl-α-rhamnosyloxy)benzyl]isothiocyanate]
[1]
  loss of MIC under rotoevaporation conditions: No significant loss
[2]
  degradation of MIC in moringa extract: ~20%
[3]
  mRNA expression of iNOS: significant reduction
[4]
  mRNA expression of IL-1β: significant reduction
[5]
  glucose production, activity compared to SF: superior activity to SF
[6]
  TNF-α gene expression: no reduction
[7]
  cytotoxicity (MTT-based cell viability): no signs of cytotoxicity

## CN(C)C(=N)N=C(N)N [metformin, reference compound]
[9]
  IC50: 800 µM

Reference: patent US11147847B2, “Extracts from plants of the Moringaceae family and methods of making” (Rutgers, The State University of New Jersey, priority 2013, dated 2021)
